# Test results as given in PMC9474773, “PARP targeted Auger emitter therapy with [^125I]PARPi-01 for triple-negative breast cancer” (EJNMMI Research, 2022).
# How the values were obtained:
# [1] = system: MDA-MB-231 cells; set-up: method as in PMID 35008392; conditions: cited from earlier work
# [2] = system: MDA-MB-231 cells; set-up: method as in PMID 35008392; conditions: cited from earlier work; remark: listed apart in the source
# [3] = Time activity analysis of organ activity (biodistribution, therapy study and SPECT/CT data pooled); type: in vivo, NOD/SCID mice
# Protocol: For biodistribution, animals imaged at 4 h p.i. were killed 24 h p.i., while the ones scanned 24 h p.i. were killed 5 days p.i.. Subsequently, organs were excised, weighed, and assayed for radioactivity in a gamma counter. Mean tumour and organ uptake was determined from decay-corrected tissue radioactivity normalized to injected dose and tissue sample weight (%ID/g tissue wet weight).
# All statistical analyses were performed using the Graph-Pad Prism software (Version 9.1.1). Biodistribution data is expressed as mean ± standard deviation. Kaplan–Meier Survival curve was analysed using survival analysis (Log rank Mantel-Cox test). The data points of the normalized tumour volume as a function of the time of the groups (Control, ^125I-PARPi, Control—excluded ulcers, ^125I-PARPi—excluded ulcers) were subjected to nonlinear regression analysis using the exponential growth formula Y = Y0*exp(k*x) (Malthusian). Accordingly, the doubling time is equal to ln(2)/k. […] During regression analysis, the best-fit value k was compared between two datasets each using the extra sum-of-squares F test, testing the null hypothesis that k is the same for both datasets. Time activity analysis was performed using nonlinear exponential decay curve fitting and area under the curve was computed using the Graph-Pad Prism software. The area under the curve is expressed as total peak area ± standard error. For statistical analysis of fluorescent signals, unpaired t-test was used.
# Auger emitter-based therapeutic effect was assessed upon application of [^125I]PARPi-01 in 4 doses (8.15 ± 2.96 MBq/dose) with 10 days between each dose in subcutaneous MDA-MB-231 models (Fig. 3A). The fractionated therapy was designed based on two recent publications. In the study by Riad et al., a good tumour response without severe toxicity in normal tissue after application of 30 MBq ^125I-labeled PARPi was shown. […] Furthermore we observed DNA damage upon low dose PARPi application in our in-vitro experiments in the MDA-MB-231 cell line. […] To avoid any handling bias in calliper measurements, only CT-image-based tumour growth was analysed. […] A significant delay in tumour growth was observed upon [^125I]PARPi-01 treatment showing doubling time of 14.2 d (95% CI: 12.6 d to 16.1 d) (Fig. 3B, Additional file 1: Fig. S3). Comparing the treatment group with the control (with and without exclusion of animals with ulcers) we could see a significant difference between the k values (P < 0.0001 and P = 0.0038, respectively) and thus also the doubling time. […] A significant portion of the mice in both the control group and the therapy group were sacrificed due to reaching humane endpoints not related to tumour size. 2 mice were sacrificed due to ascites and 10 mice were sacrificed due to ulcer formation on the tumour site. […] Considering only this selection of mice, median survival time was 35 and 38 for control and therapy mice, respectively. Since, as shown for ^177Lu labelled tracer, data (SUV, concentration) calculated based on SPECT images correlate with those obtained by gamma counting, liver, tumour, and muscle were excised for subsequent gamma counter measurements. To obtain the time activity curve and tracer retention time in each organ, the decay corrected activity (%ID/g) from the biodistribution study, therapy study and also organ activity calculated from SPECT/CT images at 4 h and 24 h p.i. were taken together and plotted over time for liver (Fig. 3D), tumour (Fig. 3E) and muscle (Fig. 3F). Tracer uptake in liver was at a peak of 3.84%ID/g at 4 h p.i. and dropped over time to 0.411%ID/g (8d p.i.). […] The peak uptake of muscle was only 0.186%ID/g at 4 h p.i. and decreased to 0.002%ID/g at 8 d p.i. The overall area under the curve (retention time) in tumour was 26.53 ± 2.35 h/g as opposed to a liver retention of 284 ± 45.02 h/g, whereas the retention time of muscle was only 5.918 ± 0.98 h/g.
# [4] = total peak area ± standard error
compound,measurement,setting,value
O=C(c1ccc([125I])cc1)N1CCN(C(=O)c2cc(Cc3n[nH]c(=O)c4ccccc34)ccc2F)CC1 [[^125I]PARPi-01],colony formation after treatment,[1],significant reduction in colony formation
same,level of apoptosis induction,[2],remained comparable low
same,tracer accumulation in tumour,[3]; 4 h p.i.,0.7219 %ID/g
same,tracer uptake in liver,[3]; 4 h p.i. (peak),3.84 %ID/g
same,uptake of muscle,[3]; 4 h p.i. (peak),0.186 %ID/g
same,tracer accumulation in tumour,[3]; 24 h,0.2 % ID/g
same,tracer accumulation in tumour,[3]; 8 days,0.02%
same,tracer uptake in liver,[3]; 8 d p.i.,0.411 %ID/g
same,uptake of muscle,[3]; 8 d p.i.,0.002 %ID/g
same,area under the curve (retention time) in liver,[3]; [4],284 ± 45.02 h/g
same,area under the curve (retention time) in muscle,[3]; [4],5.918 ± 0.98 h/g
same,area under the curve (retention time) in tumour,[3]; [4],26.53 ± 2.35 h/g
